Results published in patent publication US10144713B1, “Bis-cyclic guanidines as antibacterial agents” (UNIVERSITY OF SOUTH FLORIDA, priority 2017, dated 2018).

Experiments:
[1] = test system: E. coli (ATCC 25922); test: MIC against E. coli; assay type: cell-based; settings: Escherichia coli, ATCC25922; Gram −; 16 h, 37° C.
Protocol: (§1) Minimum Inhibitory Concentrations (MICs) Against Bacteria.
(§2) The antimicrobial activity of the compounds was tested on the following six bacteria strains: K. pneumoniae (ATCC 13383), P. aeruginosa (ATCC27853), E. coli (ATCC 25922), vancomycin-resistant Enterococcus faecalis(ATCC 700802), Methicillin-resistant S. aureus (MRSA, ATCC 33591), Methicillin-resistant S. epidermidis (MRSE, RP62A). The procedures were followed as reported previously (Hancock et al., Immunobiology 2006, 211, 315-322). Briefly, a single colony of each bacterium was inoculated in 3 mL TSB medium and incubated overnight at 37° C. Then the bacteria culture was diluted at 1:100 and the bacteria were allowed to grow to mid-logarithmic phase. Next, 50 μL of 2-fold serial dilutions of compounds (0.1-25 μg/mL) were added the 96-well plate containing aliquots of 50 μL of bacteria suspension (1×10^6 CFU/mL) in each well. The mixture was incubated at 37° C. for 16 h, and their absorption at 600 nm wavelength was read on a Biotek Synergy HT microtiter plate reader. […] The experiments were repeated at least three times with duplicates each time. HC50 means the concentration causing 50% hemolysis.

[2] = test system: Methicillin-resistant S. epidermidis (MRSE, RP62A); test: MIC against MRSE; assay type: cell-based; settings: Staphylococcus epidermidis, MRSE; Gram +; 16 h, 37° C.
Protocol: as §1, §2

[3] = test system: E. coli; test: Fluorescence microscopy (DAPI/PI) of bacterial membranes, E. coli; assay type: cell-based; settings: 10 μg/mL, 2 h, 37° C.
Protocol: (§3) Fluorescence microscopy studies were conducted to evaluate the ability of compound 12 to compromise membranes of S. aureus (Gram-positive bacterium) and E. coli (Gram-negative bacterium). Fluorescent agent 4′,6-diamidino-2-phenylindole (DAPI) was used to stain membranes of bacterial cells with blue fluorescence regardless of cell viability, and the red fluorescence of propidium iodide (PI) due to the DNA intercalation was used to stain impaired membranes. After MRSA and E. Coli grew to mid-logarithmic phase, the compound 12 was incubated with the bacteria at 37° C. for 2 h. The mixture was then centrifuged at 5000 rpm for 15 min. The cell pellets were washed with the PBS buffer for three times, and incubated with PI ([…]) and DAPI (10 μg/mL) for 15 min sequentially on ice in the dark. The mixture was then centrifuged and the pellets were washed with the PBS buffer. Next, 10 μL of the samples were placed on chamber slides and observed under Zeiss Axio Image Zloptical microscope using 100× oil-immersion objective.

[4] = test system: K. pneumoniae (ATCC 13383); test: MIC against K. pneumoniae; assay type: cell-based; settings: Klebsiella pneumoniae, ATCC13383; Gram −; 16 h, 37° C.
Protocol: as §1, §2

[5] = test system: vancomycin-resistant Enterococcus faecalis (ATCC 700802); test: MIC against VRE; assay type: cell-based; settings: Gram +; 16 h, 37° C.
Protocol: as §1, §2

[6] = test system: S. aureus; test: Fluorescence microscopy (DAPI/PI) of bacterial membranes, S. aureus; assay type: cell-based; settings: 2 h
Protocol: as §3

[7] = test system: MRSA biofilm; test: Biofilm formation inhibition (crystal violet), MRSA; assay type: cell-based, S. aureus
Protocol: (§4) Bacteria in biofilms are known to tolerate antibiotic treatment and are thus more difficult to eradicate than planktonic cells. Biofilms formed by MRSA and E. coli have frustrated the treatment of persistent bacterial infections. Compound 12 was evaluated for its ability to inhibit biofilm formation of MRSA and E. coli. Overnight grown bacteria were inoculated into fresh 10% of MHII broth at a ratio of 1:100. 100 μL of inoculated culture was incubated with appropriated amounts of compound 12 in wells of 96-well plate. The plate was incubated at 37° C. for overnight. Optical density of each well was recorded at the wavelength of 600 nm and then the biofilm biomass was recorded by the crystal violet method. Biofilm biomass was presented as CV OD/OD of growth. Relative biofilm biomass values were normalized by the biomass value of control (no addition of compound). Experiments were conducted in triplicate and the data were presented as mean±STDEV.

[8] = test system: E. coli biofilm; test: Biofilm formation inhibition (crystal violet), E. coli; assay type: cell-based; settings: Escherichia coli
Protocol: as §4

[9] = test system: MRSA; test: Drug-resistance study, 14 passages, MRSA; assay type: cell-based, S. aureus; settings: half-MIC exposure, 14 successive passages
Protocol: (§5) Bacterial resistance tests were conducted using compound 12. The compound was incubated with either MRSA or E. Coli in the well at the concentration of half-MIC (½ MIC, 10^6 CFU/ml) every day and tested for their activity through 14 successive passages.

[10] = test system: Methicillin-resistant S. aureus (MRSA, ATCC 33591); test: MIC against MRSA; assay type: cell-based; settings: Staphylococcus aureus; Gram +; 16 h, 37° C.
Protocol: as §1, §2

[11] = test system: E. coli; test: Drug-resistance study, 14 passages, E. coli; assay type: cell-based; settings: half-MIC exposure, 14 successive passages
Protocol: as §5

[12] = test system: human red blood cells (hRBCs); test: Hemolytic assay; assay type: cell-based
Protocol: The freshly drawn, K2EDTA treated human red blood cells (hRBCs) were washed with 1×PBS buffer, and centrifuged at 3500 rpm for 10 min. The step was repeated until the supernatant became clear. The supernatant was removed, and the RBCs were diluted into 5% v/v suspension. 50 μL of the suspension was incubated with 50 μL of compounds of different concentrations at 37° C. for 1 h. The mixture was centrifuged at 3500 rpm for 10 min. Subsequently, to 30 μL of the supernatant 100 μL PBS was added, and the absorbance of the mixture at 540 nm was read on a Biotek Synergy HT plate reader. The positive control was 2% Triton X-100, and the negative control was 1×PBS alone. The hemolysis activity was calculated by the formula % hemolysis=(Abssample−AbsPBS)/(AbsTriton−AbsPBS)×100%. The experiment was repeated at least three times with duplicates each time.

[13] = test system: P. aeruginosa (ATCC27853); test: MIC against P. aeruginosa; assay type: cell-based; settings: Pseudomonas aeruginosa, ATCC27853; Gram −; 16 h, 37° C.
Protocol: as §1, §2

What does the source list for `CCCCCCN1C(=N)N(CC(=O)Nc2cccc(NC(=O)CN3C[C@H](Cc4ccccc4)N(CCCCCC)C3=N)c2)C[C@@H]1Cc1ccccc1` [Compound 12]?
MIC [1]: 0.75 µg/mL; MIC [2]: 0.75 µg/mL; membrane integrity of E. coli (PI red fluorescence) [3]: disrupted; MIC [4]: 0.75 µg/mL; MIC [5]: 0.75 µg/mL; membrane integrity of S. aureus (PI red fluorescence) ([6]; 10 μg/mL, 37° C.): disrupted; aggregation of S. aureus ([6]; in the presence of compound): significant aggregation; inhibition of biofilm formation ([7]; 0.39 μg/mL): completely eradicated; inhibition at 0.19 µg/mL ([7]; Staphylococcus aureus, 0.19 μg/mL): 85%; inhibition at 0.19 µg/mL ([8]; 0.19 μg/mL): 38%; inhibition at 0.39 µg/mL ([8]; 0.39 μg/mL): ~90%; MIC after 14 passages [9]: virtually constant; MIC [10]: 0.16 µg/mL; MIC after 14 passages [11]: virtually constant; selectivity, hemolytic activity against MIC values of MRSA [12]: 1534 folds; MIC [13]: 4 µg/mL
